According to US6855693B2, “Peptides for activation and inhibition of δPKC” (The Board of Trustees of the Leland Stanford Junior …, priority 2001, dated 2005):
No end group written: not given here.

Key:
Format in all cases: cell-based
[1] = tested on: isolated adult rat cardiac myocytes; experiment: Simulated ischemia in isolated cardiac myocytes, cell damage by osmotic fragility test (trypan blue uptake)
Method: In another study, the δPKC activator peptide, ψδRACK, and the δPKC inhibitor peptide, δV1-1 were administered to isolated rat cardiac myocytes to determine the role of δPKC in protection from ischemia. As described in Example 2, the Antennapedia carrier-peptide conjugate of δV1-1 and/or ψδRACK was introduced into isolated adult rat cardiac myocytes ten minutes prior to prolonged ischemia. Cell damage was assessed using an osmotic fragility test by measuring uptake of trypan blue.
Adult male Wistar rat cardiomyocytes were prepared on a Langendorff apparatus (van der Heide, R. S. et al.) by collagenase treatment (Armstrong, S. et al.). The cells were treated with δV1-1 at concentrations of 10 nM, 100 nM, 500 nM, and 1 μM in the presence or absence of 1 μM ψδRACK. βPKC-selective activator was used as a control.
For […] ischemia, adult myocytes treated in microcentrifuge tubes with δV1-1 and/or ψδRACK peptides conjugated to the carrier were washed twice with degassed glucose-free incubation buffer and pelleted. On top of a minimal amount of buffer, the cell pellets were overlaid with either a micro-balloon (Sig Manufacturing, Montezuma, Iowa) or with degassed buffer saturated with nitrogen, and sealed with an airtight top. Tubes were then incubated at 37 C for either 180 minutes or 90 minutes.
Cell damage was assessed by an osmotic fragility test by measuring the uptake of trypan blue added in a hypotonic (85 mosM) solution. Similar results were also obtained by using a live-dead kit (Molecular Probes) or measuring the release of […] to the medium using a kit (Sigma) as previously described (Chen, et al., 1999; Gray et al., 1997; Mackay et al., 1999).

[2] = molecular target: T1, αPKC (Rattus norvegicus, UniProt P05696); experiment: Translocation of αPKC in primary cardiac myocytes (Western blot); details: data not shown
T1 construct: blots probed with anti-δPKC, anti-αPKC and anti-εPKC antibodies; endogenous in cells; host or cells: primary neonatal rat cardiac myocytes
Method: (§1) As described in Example 1, the δV1-1 and ψδRACK peptides were analyzed to determine whether the peptides had activity, and if so, whether the activity was as an agonist or an antagonist of δPKC. As will be shown, δV1-1, δV1-2 and δV1-5 are δPKC antagonists and ψδRACK is a δPKC agonist. In these studies, the δV1-1 and ψδRACK peptides were modified with a carrier peptide by cross-linking via an N-terminal Cys-Cys bond to the Drosophila Antennapedia homeodomain (SEQ ID NO:8; Théodore, L., et al.; Johnson, J. A. et al., 1996b). […] Translocation of δPKC isozyme was assessed by Western blot analysis cystosolic and particulate fractions of treated cells. Subcellular localization of δPKC isozyme was assessed by immunofluorescence by probing the blot with […], and anti-εPKC antibodies. Translocation was expressed as the amount of isozyme in the particulate fraction over the amount of isozyme in non-treated cells. […]
(§2) Translocation of δPKC isozyme was assessed by using δPKC isozyme-specific antibodies in Western blot analysis (Santa Cruz Biotechnology). […] Subcellular localization of dPKC isozymes was assessed by chemiluminescence of blots probed with anti-δPKC, anti-αPKC and anti-εPKC antibodies. […] Changes in translocation of δPKC isozyme were also determined by immunofluoresence study of treated and fixed cells (Gray et al., 1997). […]

[3] = molecular target: T2, εPKC (Rattus norvegicus, UniProt P09216); experiment: Translocation of εPKC in primary cardiac myocytes (Western blot); details: data not shown
T2 construct: blots probed with anti-δPKC, anti-αPKC and anti-εPKC antibodies; endogenous in cells; host or cells: primary neonatal rat cardiac myocytes
T2 sequence (P09216 1-737): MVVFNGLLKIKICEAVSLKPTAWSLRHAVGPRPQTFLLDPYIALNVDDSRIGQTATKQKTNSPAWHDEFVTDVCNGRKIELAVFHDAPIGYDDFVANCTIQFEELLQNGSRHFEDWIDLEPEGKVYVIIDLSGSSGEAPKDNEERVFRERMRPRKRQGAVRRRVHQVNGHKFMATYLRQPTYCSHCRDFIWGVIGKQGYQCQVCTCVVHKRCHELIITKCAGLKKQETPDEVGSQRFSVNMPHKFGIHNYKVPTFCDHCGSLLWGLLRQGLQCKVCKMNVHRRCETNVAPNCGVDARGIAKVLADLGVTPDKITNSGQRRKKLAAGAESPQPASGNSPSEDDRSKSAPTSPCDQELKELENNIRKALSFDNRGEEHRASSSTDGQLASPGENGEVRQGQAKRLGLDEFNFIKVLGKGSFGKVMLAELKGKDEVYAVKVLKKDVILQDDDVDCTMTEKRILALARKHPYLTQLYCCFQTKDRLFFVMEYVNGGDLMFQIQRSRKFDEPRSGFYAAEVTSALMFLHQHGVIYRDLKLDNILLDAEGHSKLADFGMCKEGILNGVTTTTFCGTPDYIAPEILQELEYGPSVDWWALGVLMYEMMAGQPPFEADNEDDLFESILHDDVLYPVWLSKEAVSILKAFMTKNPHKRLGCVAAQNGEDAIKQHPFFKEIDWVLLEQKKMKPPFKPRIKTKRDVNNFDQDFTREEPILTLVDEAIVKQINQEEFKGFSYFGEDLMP
Method: as §1, §2

MRAAEDPM (also: conjugated to Antennapedia or Tat carrier; listed as Rattus norvegicus) [ψδRACK, tested conjugated to Antennapedia or Tat carrier]
cardiac myocyte damage after ischemic insult ([1]; 1 μM ψδRACK, 180 minute ischemia): slight increase
effect of co-incubation on the δV1-1 protection from ischemia-induced damage ([1]; co-incubation with δV1-1, 180 minute ischemia, ψδRACK 1 μM): prevented
ψδRACK-induced increase in cell damage ([1]; ischemia shortened to 90 minutes): became significant
translocation of αPKC [2]: without affecting
translocation of εPKC [3]: without affecting

SFNSYELGSL (also: conjugated to Antennapedia or Tat carrier; listed as Rattus norvegicus) [δV1-1, tested conjugated to Antennapedia or Tat carrier]
protection from ischemia-induced cell damage ([1]; 10 nM, 100 nM, 500 nM, 1 μM, given 10 minutes prior to 180 minute ischemia): concentration-dependent level of protection
effect of co-treatment on the ψδRACK-induced increase in cell damage ([1]; 90 minute ischemia, co-treatment with ψδRACK): reversed
translocation of αPKC [2]: did not inhibit
translocation of εPKC [3]: did not inhibit
